In patent publication US9345703B2, “Kappa opioid receptor effectors and uses thereof” (University of Kansas, priority 2011, dated 2016):

Experiments:
[1] = Hepatic microsome stability, mouse; format: in vitro ADME; conditions: mouse microsomes, 1 hour
Excerpt: The microsomal stability assay is commonly used to rank compounds according to their metabolic stability. This assay addresses the pharmacologic question of how long the parent compound will remain circulating in plasma within the body.

Plasma stability, human = format: in vitro ADME
Excerpt: Plasma stability is a measure of the stability of small molecules and peptides in plasma and is an important parameter that can strongly influence the in vivo efficacy of a test compound. Drug candidates are exposed in plasma to enzymatic processes (proteinases, esterases), and they can undergo intramolecular rearrangement or bind irreversibly (covalently) to proteins.

GabaA = assay: PDSP radioligand binding assay
Protocol: (§1) The compound was initially screened in radioligand binding assays at a constant concentration (10 μM) to identify possible activity of the compound. Results showing significant activity in the initial screen were selected for Ki determinations.
(§2) As a representative of the Chemotype II series, the MLPCN probe molecule 2{8} was subjected to a binding assay panel of 44 GPCR and other molecular targets by the Pyschoactive Drug Screening Program (PDSP) (Table 10). The compound was initially screened in a radioligand binding assay at a constant concentration (10 μM) to identify possible activity of the compound. Results showing significant activity in the initial screen were selected for Ki determinations.

5ht1b = 5ht1b (Homo sapiens, UniProt P28222); assay: PDSP radioligand binding assay
Chain of 5ht1b (P28222 whole entry, species assumed): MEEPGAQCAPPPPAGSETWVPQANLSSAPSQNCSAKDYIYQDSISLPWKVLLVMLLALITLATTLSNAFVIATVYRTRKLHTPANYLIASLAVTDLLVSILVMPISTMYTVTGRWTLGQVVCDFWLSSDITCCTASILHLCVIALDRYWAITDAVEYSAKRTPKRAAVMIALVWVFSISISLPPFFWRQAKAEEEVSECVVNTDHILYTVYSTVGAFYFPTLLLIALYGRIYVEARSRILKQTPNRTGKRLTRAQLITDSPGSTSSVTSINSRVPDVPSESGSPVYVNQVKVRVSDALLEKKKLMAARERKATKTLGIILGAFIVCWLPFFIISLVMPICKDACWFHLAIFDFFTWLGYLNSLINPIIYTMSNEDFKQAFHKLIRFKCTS
Protocol: as §1, §2

5ht7 = 5ht7 (Homo sapiens, UniProt P34969); assay: PDSP radioligand binding assay
Chain of 5ht7 (P34969 whole entry, species assumed): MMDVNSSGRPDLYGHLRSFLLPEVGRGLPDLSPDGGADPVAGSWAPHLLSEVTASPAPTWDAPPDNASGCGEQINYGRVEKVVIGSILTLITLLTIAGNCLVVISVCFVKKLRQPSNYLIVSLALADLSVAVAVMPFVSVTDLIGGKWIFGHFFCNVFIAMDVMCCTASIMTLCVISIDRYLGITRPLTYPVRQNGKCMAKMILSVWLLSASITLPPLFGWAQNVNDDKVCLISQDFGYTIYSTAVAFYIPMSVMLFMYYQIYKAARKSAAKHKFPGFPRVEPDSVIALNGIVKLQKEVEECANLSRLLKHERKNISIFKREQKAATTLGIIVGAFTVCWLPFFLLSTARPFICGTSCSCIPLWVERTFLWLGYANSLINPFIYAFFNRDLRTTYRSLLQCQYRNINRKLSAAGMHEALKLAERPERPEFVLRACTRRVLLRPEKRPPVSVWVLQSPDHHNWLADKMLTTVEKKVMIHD
Protocol: as §1, §2

H4 = H4 (Homo sapiens, UniProt Q9H3N8); assay: PDSP radioligand binding assay
Protocol: as §1, §2

5ht1e = 5ht1e (Homo sapiens, UniProt P28566); assay: PDSP radioligand binding assay
Protocol: as §1, §2

Sigma1 = assay: PDSP radioligand binding assay
Protocol: as §1, §2

M2 = M2 (Homo sapiens, UniProt P08172); assay: PDSP radioligand binding assay
Protocol: as §1, §2

D1 = D1 (Homo sapiens, UniProt P21728); assay: PDSP radioligand binding assay
Protocol: as §1, §2

Beta2 = Beta2 (Homo sapiens, UniProt P07550); assay: PDSP radioligand binding assay
Protocol: as §1, §2

H2 = H2 (Homo sapiens, UniProt P25021); assay: PDSP radioligand binding assay
Protocol: as §1, §2

Beta1 = Beta1 (Homo sapiens, UniProt P08588); assay: PDSP radioligand binding assay
Protocol: as §1, §2

D2 = D2 (Homo sapiens, UniProt P14416); assay: PDSP radioligand binding assay
Protocol: as §1, §2

5ht3 = 5ht3 (Homo sapiens, UniProt P46098); assay: PDSP radioligand binding assay
Protocol: as §1, §2

BZP Rat Brain Site = assay: PDSP radioligand binding assay
Protocol: as §1, §2

Alpha2B = Alpha2B (Homo sapiens, UniProt P18089); assay: PDSP radioligand binding assay
Protocol: as §1, §2

D5 = D5 (Homo sapiens, UniProt P21918); assay: PDSP radioligand binding assay
Protocol: as §1, §2

5ht2a = 5ht2a (Homo sapiens, UniProt P28223); assay: PDSP radioligand binding assay
Chain of 5ht2a (P28223 whole entry, species assumed): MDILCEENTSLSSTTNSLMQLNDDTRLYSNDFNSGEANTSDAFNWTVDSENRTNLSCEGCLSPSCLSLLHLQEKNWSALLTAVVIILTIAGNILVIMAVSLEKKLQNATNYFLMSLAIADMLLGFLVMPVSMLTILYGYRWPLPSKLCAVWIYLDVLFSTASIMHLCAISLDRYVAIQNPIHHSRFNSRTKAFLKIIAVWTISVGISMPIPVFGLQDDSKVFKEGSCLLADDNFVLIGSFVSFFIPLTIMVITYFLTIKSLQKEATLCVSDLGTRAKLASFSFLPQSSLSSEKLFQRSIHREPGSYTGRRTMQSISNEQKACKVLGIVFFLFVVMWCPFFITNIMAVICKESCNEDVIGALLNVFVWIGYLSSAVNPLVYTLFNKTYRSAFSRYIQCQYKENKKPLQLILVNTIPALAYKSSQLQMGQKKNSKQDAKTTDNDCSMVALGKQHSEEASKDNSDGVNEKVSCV
Protocol: as §1, §2

Alpha2A = Alpha2A (Homo sapiens, UniProt P08913); assay: PDSP radioligand binding assay
Protocol: as §1, §2

M5 = M5 (Homo sapiens, UniProt P08912); assay: PDSP radioligand binding assay
Chain of M5 (P08912 whole entry): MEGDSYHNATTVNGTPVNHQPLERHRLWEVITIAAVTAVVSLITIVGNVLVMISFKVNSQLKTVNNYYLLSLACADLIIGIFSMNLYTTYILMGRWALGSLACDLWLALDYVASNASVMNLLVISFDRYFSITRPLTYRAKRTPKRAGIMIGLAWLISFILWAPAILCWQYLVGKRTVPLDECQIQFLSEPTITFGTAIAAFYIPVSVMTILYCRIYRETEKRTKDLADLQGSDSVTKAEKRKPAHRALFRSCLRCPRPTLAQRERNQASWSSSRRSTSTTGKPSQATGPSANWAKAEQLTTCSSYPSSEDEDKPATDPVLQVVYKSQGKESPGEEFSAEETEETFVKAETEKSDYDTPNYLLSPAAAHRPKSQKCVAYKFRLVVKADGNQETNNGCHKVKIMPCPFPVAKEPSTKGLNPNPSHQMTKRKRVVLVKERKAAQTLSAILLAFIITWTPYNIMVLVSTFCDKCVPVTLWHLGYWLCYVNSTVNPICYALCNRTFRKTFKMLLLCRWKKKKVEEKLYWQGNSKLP
Protocol: as §1, §2

5ht5a = 5ht5a (Homo sapiens, UniProt P47898); assay: PDSP radioligand binding assay
Chain of 5ht5a (P47898 whole entry, species assumed): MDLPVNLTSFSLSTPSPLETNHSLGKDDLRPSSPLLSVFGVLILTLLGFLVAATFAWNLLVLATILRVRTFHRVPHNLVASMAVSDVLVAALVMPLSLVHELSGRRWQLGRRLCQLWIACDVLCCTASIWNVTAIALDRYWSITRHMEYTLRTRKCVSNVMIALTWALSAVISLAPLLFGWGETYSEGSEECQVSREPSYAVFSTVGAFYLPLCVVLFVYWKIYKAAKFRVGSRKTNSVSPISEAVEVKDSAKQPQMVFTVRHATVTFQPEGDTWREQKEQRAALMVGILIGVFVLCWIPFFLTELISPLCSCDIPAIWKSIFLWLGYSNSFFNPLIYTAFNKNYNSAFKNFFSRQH
Protocol: as §1, §2

M1 = M1 (Homo sapiens, UniProt P11229); assay: PDSP radioligand binding assay
Chain of M1 (P11229 whole entry): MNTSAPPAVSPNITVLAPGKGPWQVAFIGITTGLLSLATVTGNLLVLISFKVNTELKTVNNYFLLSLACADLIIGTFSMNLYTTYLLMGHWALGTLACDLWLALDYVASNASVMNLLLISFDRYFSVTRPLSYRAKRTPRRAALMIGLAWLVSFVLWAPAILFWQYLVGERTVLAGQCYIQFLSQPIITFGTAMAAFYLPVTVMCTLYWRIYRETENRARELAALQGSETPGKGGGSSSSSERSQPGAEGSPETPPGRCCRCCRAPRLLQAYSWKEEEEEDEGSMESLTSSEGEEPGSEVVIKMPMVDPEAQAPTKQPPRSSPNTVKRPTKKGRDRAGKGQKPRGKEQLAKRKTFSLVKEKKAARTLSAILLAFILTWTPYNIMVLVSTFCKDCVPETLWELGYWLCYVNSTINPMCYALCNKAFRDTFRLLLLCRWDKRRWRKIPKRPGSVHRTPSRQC
Protocol: as §1, §2

D4 = D4 (Homo sapiens, UniProt P21917); assay: PDSP radioligand binding assay
Protocol: as §1, §2

Alpha1A = Alpha1A (Homo sapiens, UniProt P35348); assay: PDSP radioligand binding assay
Protocol: as §1, §2

Sigma2 = Sigma2 (Rattus norvegicus, UniProt Q5U3Y7); assay: PDSP radioligand binding assay
Chain of Sigma2 (Q5U3Y7 whole entry): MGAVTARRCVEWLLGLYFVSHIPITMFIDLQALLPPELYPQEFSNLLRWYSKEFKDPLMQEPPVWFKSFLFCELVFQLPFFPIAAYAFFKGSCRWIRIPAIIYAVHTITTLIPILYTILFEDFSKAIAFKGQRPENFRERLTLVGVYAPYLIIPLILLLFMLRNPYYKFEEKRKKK
Protocol: as §1, §2

SERT = SERT (Homo sapiens, UniProt P31645); assay: PDSP radioligand binding assay
Chain of SERT (P31645 whole entry, species assumed): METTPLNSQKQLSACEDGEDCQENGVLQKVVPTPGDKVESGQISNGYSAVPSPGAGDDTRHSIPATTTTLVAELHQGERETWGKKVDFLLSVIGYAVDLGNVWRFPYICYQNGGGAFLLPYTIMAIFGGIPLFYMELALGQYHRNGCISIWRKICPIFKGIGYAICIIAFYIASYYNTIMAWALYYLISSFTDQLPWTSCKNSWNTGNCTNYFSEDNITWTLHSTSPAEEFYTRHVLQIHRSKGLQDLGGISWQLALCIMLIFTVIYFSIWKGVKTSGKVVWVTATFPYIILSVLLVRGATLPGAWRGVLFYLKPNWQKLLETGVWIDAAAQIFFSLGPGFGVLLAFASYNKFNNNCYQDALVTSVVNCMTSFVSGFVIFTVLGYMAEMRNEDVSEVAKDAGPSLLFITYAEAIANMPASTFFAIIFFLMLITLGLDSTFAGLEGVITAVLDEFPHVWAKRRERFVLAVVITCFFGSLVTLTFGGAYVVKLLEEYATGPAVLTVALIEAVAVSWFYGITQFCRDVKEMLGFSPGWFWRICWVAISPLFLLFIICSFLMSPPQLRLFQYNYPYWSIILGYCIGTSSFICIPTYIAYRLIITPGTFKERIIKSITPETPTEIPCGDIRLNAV
Protocol: as §1, §2

NET = NET (Homo sapiens, UniProt P23975); assay: PDSP radioligand binding assay
Protocol: as §1, §2

5ht1a = 5ht1a (Homo sapiens, UniProt P08908); assay: PDSP radioligand binding assay
Protocol: as §1, §2

Beta3 = Beta3 (Homo sapiens, UniProt P13945); assay: PDSP radioligand binding assay
Protocol: as §1, §2

5ht6 = 5ht6 (Homo sapiens, UniProt P50406); assay: PDSP radioligand binding assay
Chain of 5ht6 (P50406 whole entry, species assumed): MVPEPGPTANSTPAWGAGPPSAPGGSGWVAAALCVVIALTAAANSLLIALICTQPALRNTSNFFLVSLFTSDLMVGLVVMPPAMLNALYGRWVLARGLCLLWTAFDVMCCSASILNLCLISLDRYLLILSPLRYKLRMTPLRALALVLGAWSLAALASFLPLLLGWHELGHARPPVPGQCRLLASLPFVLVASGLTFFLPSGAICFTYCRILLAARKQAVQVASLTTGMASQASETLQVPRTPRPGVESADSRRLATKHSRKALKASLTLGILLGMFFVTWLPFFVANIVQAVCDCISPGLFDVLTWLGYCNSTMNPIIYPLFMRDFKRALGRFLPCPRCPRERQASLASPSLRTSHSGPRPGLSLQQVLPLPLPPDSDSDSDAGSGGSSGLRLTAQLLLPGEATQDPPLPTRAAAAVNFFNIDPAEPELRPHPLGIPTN
Protocol: as §1, §2

M4 = M4 (Homo sapiens, UniProt P08173); assay: PDSP radioligand binding assay
Chain of M4 (P08173 whole entry): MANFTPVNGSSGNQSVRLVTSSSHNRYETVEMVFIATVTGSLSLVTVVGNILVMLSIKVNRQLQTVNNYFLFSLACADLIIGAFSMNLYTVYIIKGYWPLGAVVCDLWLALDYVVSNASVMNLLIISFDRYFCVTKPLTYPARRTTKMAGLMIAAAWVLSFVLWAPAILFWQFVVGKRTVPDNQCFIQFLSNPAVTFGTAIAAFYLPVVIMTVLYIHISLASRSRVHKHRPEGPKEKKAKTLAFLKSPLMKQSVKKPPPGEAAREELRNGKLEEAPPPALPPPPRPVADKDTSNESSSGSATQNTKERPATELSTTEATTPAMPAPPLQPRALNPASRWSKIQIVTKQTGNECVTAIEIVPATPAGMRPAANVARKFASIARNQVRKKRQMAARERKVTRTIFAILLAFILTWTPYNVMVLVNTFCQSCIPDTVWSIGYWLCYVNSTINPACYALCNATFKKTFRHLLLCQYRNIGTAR
Protocol: as §1, §2

Alpha1D = Alpha1D (Homo sapiens, UniProt P25100); assay: PDSP radioligand binding assay
Protocol: as §1, §2

5ht2c = 5ht2c (Homo sapiens, UniProt P28335); assay: PDSP radioligand binding assay
Protocol: as §1, §2

Alpha1B = Alpha1B (Homo sapiens, UniProt P35368); assay: PDSP radioligand binding assay
Protocol: as §1, §2

5ht2b = 5ht2b (Homo sapiens, UniProt P41595); assay: PDSP radioligand binding assay
Protocol: as §1, §2

H1 = H1 (Homo sapiens, UniProt P35367); assay: PDSP radioligand binding assay
Protocol: as §1, §2

Alpha2C = Alpha2C (Homo sapiens, UniProt P18825); assay: PDSP radioligand binding assay
Protocol: as §1, §2

H3 = H3 (Homo sapiens, UniProt Q9Y5N1); assay: PDSP radioligand binding assay
Chain of H3 (Q9Y5N1 whole entry): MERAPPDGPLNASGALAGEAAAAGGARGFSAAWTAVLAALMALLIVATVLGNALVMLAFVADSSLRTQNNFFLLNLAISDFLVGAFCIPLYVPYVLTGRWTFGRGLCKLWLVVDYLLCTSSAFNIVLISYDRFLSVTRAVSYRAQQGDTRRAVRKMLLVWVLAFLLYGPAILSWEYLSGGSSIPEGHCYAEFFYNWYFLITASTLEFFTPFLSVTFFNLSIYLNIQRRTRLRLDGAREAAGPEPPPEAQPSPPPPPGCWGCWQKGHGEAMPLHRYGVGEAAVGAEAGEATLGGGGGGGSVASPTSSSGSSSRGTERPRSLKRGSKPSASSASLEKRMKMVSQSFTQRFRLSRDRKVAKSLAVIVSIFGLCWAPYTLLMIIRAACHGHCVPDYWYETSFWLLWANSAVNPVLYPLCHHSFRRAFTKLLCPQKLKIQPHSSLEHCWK
Protocol: as §1, §2

5ht1d = 5ht1d (Homo sapiens, UniProt P28221); assay: PDSP radioligand binding assay
Protocol: as §1, §2

M3 = M3 (Homo sapiens, UniProt P20309); assay: PDSP radioligand binding assay
Protocol: as §1, §2

COc1ccc(N2CCN(CCCNC(=O)Cn3c(=O)c4cccn4c4c(C)ccnc43)CC2)cc1 [Compound 1{3}, N-(3-(4-(4-Methoxyphenyl)piperazin-1-yl)propyl)-2-(1-methyl-6-oxopyrido[2,3-e]pyrrolo[1,2-a]pyrazin-5(6H)-yl)acetamide]
microsomal stability, remaining [1]: 7.3%
plasma stability, remaining (Plasma stability, human; human, plasma, 3 h): 100%
Ki (GabaA; Table 5): > 10 µM
Ki (5ht1b; Table 5): > 10 µM
Ki (5ht7; Table 5): > 10 µM
Ki (H4; Table 5): > 10 µM
Ki (5ht1e; Table 5): > 10 µM
Ki (Sigma1; Table 5): > 10 µM
Ki (M2; Table 5): > 10 µM
Ki (D1; Table 5): > 10 µM
Ki (Beta2; Table 5): > 10 µM
Ki (H2; Table 5): 3.5 µM
Ki (Beta1; Table 5): > 10 µM
Ki (D2; Table 5): 1.35 µM
Ki (5ht3; Table 5): > 10 µM
Ki (BZP Rat Brain Site; Table 5): > 10 µM
Ki (Alpha2B; Table 5): 7.7 µM
Ki (D5; Table 5): > 10 µM
Ki (5ht2a; Table 5): > 10 µM
Ki (Alpha2A; Table 5): > 10 µM
Ki (M5; Table 5): 6.4 µM
Ki (5ht5a; Table 5): > 10 µM
Ki (M1; Table 5): > 10 µM
Ki (D4; Table 5): > 10 µM
Ki (Alpha1A; Table 5): > 10 µM
Ki (Sigma2; Table 5): > 10 µM
Ki (SERT; Table 5): 5.33 µM
Ki (NET; Table 5): 0.685 µM
Ki (5ht1a; Table 5): > 10 µM
Ki (Beta3; Table 5): > 10 µM
Ki (5ht6; Table 5): > 10 µM
Ki (M4; Table 5): > 10 µM
Ki (Alpha1D; Table 5): > 10 µM
Ki (5ht2c; Table 5): > 10 µM
Ki (Alpha1B; Table 5): > 10 µM
Ki (5ht2b; Table 5): 1.92 µM
Ki (H1; Table 5): 0.454 µM
Ki (Alpha2C; Table 5): 0.694 µM
Ki (H3; Table 5): > 10 µM
Ki (5ht1d; Table 5): 0.702 µM
Ki (M3; Table 5): > 10 µM

Clc1ccc(CSc2nnc(-c3ccccn3)n2Cc2ccco2)cc1Cl [Compound 2{8}]
microsomal stability, remaining [1]: 0.03%
plasma stability, remaining (Plasma stability, human; human plasma, 3 hours): 100%
Ki (GabaA; Table 10): > 10 µM
Ki (5ht1b; Table 10): > 10 µM
Ki (5ht7; Table 10): > 10 µM
Ki (H4; Table 10): > 10 µM
Ki (5ht1e; Table 10): > 10 µM
Ki (Sigma1; Table 10): > 10 µM
Ki (M2; Table 10): > 10 µM
Ki (D1; Table 10): 1.8 µM
Ki (Beta2; Table 10): > 10 µM
Ki (H2; Table 10): > 10 µM
Ki (Beta1; Table 10): > 10 µM
Ki (D2; Table 10): > 10 µM
Ki (5ht3; Table 10): > 10 µM
Ki (BZP Rat Brain Site; Table 10): > 10 µM
Ki (Alpha2B; Table 10): 5.53 µM
Ki (D5; Table 10): 7.02 µM
Ki (5ht2a; Table 10): 3.79 µM
Ki (Alpha2A; Table 10): > 10 µM
Ki (M5; Table 10): 4.42 µM
Ki (5ht5a; Table 10): 4.99 µM
Ki (M1; Table 10): > 10 µM
Ki (D4; Table 10): > 10 µM
Ki (Alpha1A; Table 10): > 10 µM
Ki (Sigma2; Table 10): 2.91 µM
Ki (SERT; Table 10): > 10 µM
Ki (NET; Table 10): 5.87 µM
Ki (5ht1a; Table 10): > 10 µM
Ki (Beta3; Table 10): 7.31 µM
Ki (5ht6; Table 10): > 10 µM
Ki (M4; Table 10): > 10 µM
Ki (Alpha1D; Table 10): > 10 µM
Ki (5ht2c; Table 10): > 10 µM
Ki (Alpha1B; Table 10): > 10 µM
Ki (5ht2b; Table 10): 1.24 µM
Ki (H1; Table 10): > 10 µM
Ki (Alpha2C; Table 10): 9.6 µM
Ki (H3; Table 10): > 10 µM
Ki (5ht1d; Table 10): > 10 µM
Ki (M3; Table 10): > 10 µM
